According to patent US6379652B1, “Oral compositions for reducing mouth odors” (Colgate Palmolive Company, priority 2000, dated 2002):

Test system: F. nucleatum
Test: MIC assay for bactericidal activity (microtiter format)
Format: cell-based
Set-up: MIC Value: unit not given here
Conditions: for MIC Value: individual flavors, 1% by weight solution in ethanol, F. nucleatum, lower = more effective; for bactericidal activity against F. nucleatum (in words): summary of Table I
Experimental: A 1% by weight solution in ethanol of a series of individual essential oil flavors were prepared and evaluated in an MIC assay for bactericidal activity against F. nucleatum. The bacterial strain F. nucleatum is implicated in the occurrence of oral malodor.
The bacterial strains of F. nucleatum were grown […] in thioglycolate broth for 48 hours at 37° C. The optical density at 610 nm was adjusted to between 0.1 to 0.2 prior the MIC determination.
MIC determinations were performed using the microtiter format according to standard procedures (Manual of clinical Microbiology, 1995).
The procedure of Example 1 was repeated except combinations of various flavor compounds were evaluated for antibacterial efficacy via the MIC assay.

SMILES | MIC Value | bactericidal activity against F. nucleatum (in words)
CC12CCC(CC1)C(C)(C)O2 [Eucalyptol] | 500 | 
Cc1ccc(C(C)C)c(O)c1 [Thymol] | 125 | good bactericidal activity
O=C/C=C/c1ccccc1 [Cinnamic aldehyde] | 125 | good bactericidal activity
CC=Cc1ccc(OC)cc1 [Anethol] | 500 | 
CC(C)[C@@H]1CC[C@@H](C)C[C@H]1O [L-menthol] | 500 | 
C=CCc1ccc(O)c(OC)c1 [Eugenol] | 250 | good bactericidal activity
